Source: patent publication US20040023994A1 (priority 2002, published 2004)
Like-named read-outs stand apart in the source and are kept apart here. Marks after values point to notes of the source that are not given here.

How the values were obtained:
[1] = system: A549/ATCC; settings: Non-Small Cell Lung, NCI database, cited from earlier work; for CC50: read-out: LC50 (the source's name)
[2] = system: BT-549; settings: BT-549, Breast, NCI database, cited from earlier work; for CC50: read-out: LC50 (the source's name)
[3] = system: OVCAR-3; settings: OVCAR-3, Ovarian, NCI database, cited from earlier work; for CC50: read-out: LC50 (the source's name)
[4] = system: NCI/ADR-RES; settings: Breast, NCI database, cited from earlier work; for CC50: read-out: LC50 (the source's name)
[5] = system: SF-295; settings: SF-295, CNS, NCI database, cited from earlier work; for CC50: read-out: LC50 (the source's name)
[6] = system: SN12C; settings: Renal, NCI database, cited from earlier work; for CC50: read-out: LC50 (the source's name)
[7] = system: ACHN; settings: Renal, NCI database, cited from earlier work; for CC50: read-out: LC50 (the source's name)
[8] = system: PC-3; settings: PC-3, Prostate, NCI database, cited from earlier work; for CC50: read-out: LC50 (the source's name)
[9] = system: MOLT-4; settings: MOLT-4, Leukemia, NCI database, cited from earlier work; for CC50: read-out: LC50 (the source's name)
[10] = system: K-562; settings: K-562, Leukemia, NCI database, cited from earlier work; for CC50: read-out: LC50 (the source's name)
[11] = system: HT29; settings: HT29, Colon, NCI database, cited from earlier work; for CC50: read-out: LC50 (the source's name)
[12] = system: UACC-257; settings: UACC-257, Melanoma, NCI database, cited from earlier work; for CC50: read-out: LC50 (the source's name)
[13] = system: Heterozygous nude CD-1 male mice; assay: Liver function (AST, ALT in plasma) and liver histopathology in treated mice
Description: Heterozygous nude CD-1 male mice were treated (i.p.) with multiple doses consisting of either one dose daily for three consecutive days (cis-AVTP or trans-AVTG, 21.25 μmol/kg, 6-TG, 8.5 or 21.25 μmol/kg, or vehicle; one cycle), or one dose daily for three consecutive days, repeated again five days later (cis-AVTP, trans-AVTG or 6-TG, 8.5 or 21.25 μmol/kg, or vehicle; two cycles).
The mice were sacrificed 24 h after the last treatment. Urine was collected for 24 h before initiation of treatment and every 24 h thereafter until the mice were sacrificed. Blood was collected by cardiac puncture and blood cells counted. Sections of liver, kidney, intestines, stomach and sternum were stained with hematoxylin and eosin and subjected to pathological analysis. Bone marrow smears were prepared for assessment of bone marrow cellularity. Liver function was evaluated by measuring alanine aminotransferase-(ALT) and aspartate aminotransferase (AST) activities in plasma. Kidney function was evaluated by measuring blood urea nitrogen in plasma and γ-glutamyltransferase activity and glucose levels in urine.

[14] = system: OVCAR-8; settings: OVCAR-8, Ovarian, 48 h
[15] = system: PC-3; type: cell-based; settings: PC-3, Prostate, 48 h
[16] = system: SNB-19; settings: SNB-19, CNS, 48 h
[17] = system: MDA-N; type: cell-based; settings: Breast, 48 h
[18] = system: OVCAR-5; settings: OVCAR-5, Ovarian, 48 h
[19] = system: HCT-15; settings: HCT-15, Colon, 48 h
[20] = system: SN12C; type: cell-based; settings: Renal, 48 h
[21] = system: NCI/ADR-RES
[22] = system: MOLT-4; settings: MOLT-4, Leukemia, 48 h
[23] = system: HOP-92; settings: HOP-92, Non-Small Cell Lung, 48 h

Sc1ncnc2nc[nH]c12 [6-MP, 6-mercaptopurine]
CC50 [1]: > 100 µM
GI50 [1]: 27.7 µM
TGI [1]: >100 µM
GI50 [2]: > 100 µM
TGI [2]: >100 µM
CC50 [2]: > 100 µM
GI50 [3]: 0.71 µM
TGI [3]: >100 µM
CC50 [3]: > 100 µM
CC50 [4]: > 100 µM
GI50 [4]: 3.18 µM
TGI [4]: >100 µM
GI50 [5]: 5.36 µM
TGI [5]: >100 µM
CC50 [5]: > 100 µM
CC50 [6]: > 100 µM
GI50 [6]: 22.6 µM
TGI [6]: >100 µM
CC50 [7]: > 100 µM
GI50 [7]: 6.3 µM
TGI [7]: >100 µM
GI50 [8]: 3.81 µM
TGI [8]: >100 µM
CC50 [8]: > 100 µM
GI50 [9]: 1.51 µM
TGI [9]: >100 µM
CC50 [9]: > 100 µM
GI50 [10]: 0.35 µM
TGI [10]: >100 µM
CC50 [10]: > 100 µM
GI50 [11]: 3.97 µM
TGI [11]: >100 µM
CC50 [11]: > 100 µM
GI50 [12]: 14.2 µM
TGI [12]: >100 µM
CC50 [12]: > 100 µM

Nc1nc2nc[nH]c2c(=S)[nH]1 [6-TG, 6-thioguanine]
CC50 [1]: > 100 µM
GI50 [1]: 3.48 µM
TGI [1]: >100 µM
GI50 [2]: 3.59 µM
TGI [2]: >100 µM
CC50 [2]: > 100 µM
ALT ([13]; 8.5 μmol/kg, one cycle): 9.2 ± 3.2 SF U/ml
AST ([13]; 8.5 μmol/kg, one cycle): 43.5 ± 24.8 SF U/ml
ALT ([13]; 8.5 μmol/kg, two cycles): 10.5 ± 6.6^a SF U/ml
AST ([13]; 8.5 μmol/kg, two cycles): 37.9 ± 12.2^a SF U/ml
ALT ([13]; 21.25 μmol/kg, one cycle): 15.0 ± 2.5^b SF U/ml
AST ([13]; 21.25 μmol/kg, one cycle): 44.4 ± 5.4^c SF U/ml
ALT ([13]; 21.25 μmol/kg, two cycles): 12.6 ± 4.8^a SF U/ml
AST ([13]; 21.25 μmol/kg, two cycles): 68.2 ± 54.5^a SF U/ml
GI50 [3]: 0.71 µM
TGI [3]: 6.68 µM
CC50 [3]: > 100 µM
CC50 [4]: > 100 µM
GI50 [4]: 0.59 µM
TGI [4]: 35.6 µM
GI50 [5]: 1.02 µM
TGI [5]: >100 µM
CC50 [5]: > 100 µM
CC50 [6]: > 100 µM
GI50 [6]: 1.25 µM
TGI [6]: >100 µM
CC50 [7]: > 100 µM
GI50 [7]: 1.93 µM
TGI [7]: >100 µM
GI50 [8]: 1.77 µM
TGI [8]: >100 µM
CC50 [8]: > 100 µM
GI50 [9]: 0.27 µM
TGI [9]: 15.4 µM
CC50 [9]: > 100 µM
GI50 [10]: 0.4 µM
TGI [10]: 70.8 µM
CC50 [10]: > 100 µM
GI50 [11]: 1.13 µM
TGI [11]: >100 µM
CC50 [11]: > 100 µM
GI50 [12]: 1.98 µM
TGI [12]: 95.7 µM
CC50 [12]: > 100 µM

CC(=O)C=CSc1nc(N)nc2nc[nH]c12 [trans-AVTG, 6-(2-acetylvinylthio) guanine]
GI50 [14]: 0.55 µM
TGI [14]: >100 µM
CC50 ([14]; read-out: LC50): > 100 µM
GI50 [15]: 3.96 µM
TGI [15]: 19.7 µM
GI50 [16]: 18.7 µM
TGI [16]: 50.9 µM
CC50 ([16]; read-out: LC50): > 100 µM
GI50 [17]: 1.28 µM
TGI [17]: 10.3 µM
GI50 [18]: 0.54 µM
TGI [18]: 6.04 µM
CC50 ([18]; read-out: LC50): 57.7 µM
GI50 [19]: 1.73 µM
TGI [19]: 19.4 µM
CC50 ([19]; read-out: LC50): > 100 µM
GI50 [20]: 2.84 µM
TGI [20]: 14.3 µM
GI50 ([21]; Breast, 48 h): 0.35 µM
TGI ([21]; Breast, 48 h): 7.40 µM
CC50 ([21]; read-out: LC50, Breast, 48 h): > 100 µM
GI50 [22]: 0.7 µM
TGI [22]: >100 µM
CC50 ([22]; read-out: LC50): > 100 µM
GI50 [23]: 3.01 µM
TGI [23]: 19.4 µM
CC50 ([23]; read-out: LC50): 50 µM
